The data set has as its system CCRIS mutagenicity, Ames/micronucleus/aberration tests. In words: CCRIS mutagenicity studies.
[1] abbreviates: Test System: AMES SALMONELLA TYPHIMURIUM, Strain/Indicator: TA98, Metabolic Activation: NONE, Method: PREINCUBATION
Where [2] appears, read: Test System: AMES SALMONELLA TYPHIMURIUM, Strain/Indicator: TA98, Metabolic Activation: RAT, LIVER, S-9, PCB, Method: PREINCUBATION
Setting [3] is: Test System: AMES SALMONELLA TYPHIMURIUM, Strain/Indicator: TA100, Metabolic Activation: NONE, Method: PREINCUBATION
The mark [4] stands for this setting: Test System: AMES SALMONELLA TYPHIMURIUM, Strain/Indicator: TA100, Metabolic Activation: RAT, LIVER, S-9, PCB, Method: PREINCUBATION
The mark [5] stands for this setting: Test System: AMES SALMONELLA TYPHIMURIUM, Strain/Indicator: TA98, Metabolic Activation: NONE, Method: STANDARD PLATE.
[6] abbreviates: Test System: AMES SALMONELLA TYPHIMURIUM, Strain/Indicator: TA98, Metabolic Activation: RAT, LIVER, S-9, AROCLOR 1254, Method: STANDARD PLATE.
[7] abbreviates: Test System: AMES SALMONELLA TYPHIMURIUM, Strain/Indicator: TA100, Metabolic Activation: NONE, Method: STANDARD PLATE.
Setting [8] is: Test System: AMES SALMONELLA TYPHIMURIUM, Strain/Indicator: TA1538, Metabolic Activation: NONE, Method: STANDARD PLATE.

Each structure is given as a SMILES string. The source made the active and inactive calls. How the calls were made is not given here.

For the molecule `COc1cc(C[C@@H](CO)[C@H](CO)Cc2ccc(O)c(OC)c2)ccc1O`, the mutagenic call was “inactive; negative” (Test System: CHINESE HAMSTER V79 CELLS, Strain/Indicator: V79 CELLS (HPRT)/6-THIOGUANINE, Metabolic Activation: NONE, Method: SUSPENSION/PLATE) and “inactive; negative” (Test System: CHINESE HAMSTER V-79, Strain/Indicator: V-79 (HPRT)/6-THIOGUANINE, Metabolic Activation: NONE).

Regarding `CC(=O)OCc1c(O)cc2c(c1O)C(=O)c1ccccc1C2=O`, the mutagenic call reads like this: under setting [1], “active; positive”; under setting [2], “active; positive”; under setting [3], “active; positive”; under setting [4], “active; positive”.

Regarding `O=[N+]([O-])c1ccc(Nc2ncnc3nc[nH]c23)cc1`, the mutagenic call reads like this: (Test System: AMES SALMONELLA TYPHIMURIUM, Strain/Indicator: TA98(1,8-DNP), Metabolic Activation: NONE, Method: PREINCUBATION) “inactive; negative”; (Test System: AMES SALMONELLA TYPHIMURIUM, Strain/Indicator: TA98(1,8-DNP), Metabolic Activation: RAT, LIVER, S-9, PCB, Method: PREINCUBATION) “inactive; negative”; (Test System: AMES SALMONELLA TYPHIMURIUM, Strain/Indicator: TA98(NR), Metabolic Activation: NONE, Method: PREINCUBATION) “inactive; negative”; (Test System: AMES SALMONELLA TYPHIMURIUM, Strain/Indicator: TA98(NR), Metabolic Activation: RAT, LIVER, S-9, PCB, Method: PREINCUBATION) “inactive; negative”; under setting [1], “inactive; negative”; under setting [2], “inactive; negative”. In addition, the mutagenic call (Test System: AMES SALMONELLA TYPHIMURIUM, Strain/Indicator: TA100(1,8-DNP), Metabolic Activation: NONE, Method: PREINCUBATION) is “inactive; negative”; the mutagenic call (Test System: AMES SALMONELLA TYPHIMURIUM, Strain/Indicator: TA100(1,8-DNP), Metabolic Activation: RAT, LIVER, S-9, PCB, Method: PREINCUBATION) is “inactive; negative”; the mutagenic call (Test System: AMES SALMONELLA TYPHIMURIUM, Strain/Indicator: TA100(NR), Metabolic Activation: NONE, Method: PREINCUBATION) is “inactive; negative”; the mutagenic call (Test System: AMES SALMONELLA TYPHIMURIUM, Strain/Indicator: TA100(NR), Metabolic Activation: RAT, LIVER, S-9, PCB, Method: PREINCUBATION) was “inactive; negative”; the mutagenic call under setting [3] is “inactive; negative”; the mutagenic call under setting [4] is “inactive; negative”. The mutagenic call is “inactive; negative” (Test System: AMES SALMONELLA TYPHIMURIUM, Strain/Indicator: YG1020, Metabolic Activation: NONE, Method: PREINCUBATION); “inactive; negative” (Test System: AMES SALMONELLA TYPHIMURIUM, Strain/Indicator: YG1020, Metabolic Activation: RAT, LIVER, S-9, PCB, Method: PREINCUBATION); “inactive; negative” (Test System: AMES SALMONELLA TYPHIMURIUM, Strain/Indicator: YG1021, Metabolic Activation: NONE, Method: PREINCUBATION); “inactive; negative” (Test System: AMES SALMONELLA TYPHIMURIUM, Strain/Indicator: YG1021, Metabolic Activation: RAT, LIVER, S-9, PCB, Method: PREINCUBATION); “inactive; negative” (Test System: AMES SALMONELLA TYPHIMURIUM, Strain/Indicator: YG1024, Metabolic Activation: NONE, Method: PREINCUBATION); “inactive; negative” (Test System: AMES SALMONELLA TYPHIMURIUM, Strain/Indicator: YG1024, Metabolic Activation: RAT, LIVER, S-9, PCB, Method: PREINCUBATION). In addition, the mutagenic call is “inactive; negative” (Test System: AMES SALMONELLA TYPHIMURIUM, Strain/Indicator: YG1025, Metabolic Activation: NONE, Method: PREINCUBATION); “inactive; negative” (Test System: AMES SALMONELLA TYPHIMURIUM, Strain/Indicator: YG1025, Metabolic Activation: RAT, LIVER, S-9, PCB, Method: PREINCUBATION); “inactive; negative” (Test System: AMES SALMONELLA TYPHIMURIUM, Strain/Indicator: YG1026, Metabolic Activation: NONE, Method: PREINCUBATION); “inactive; negative” (Test System: AMES SALMONELLA TYPHIMURIUM, Strain/Indicator: YG1026, Metabolic Activation: RAT, LIVER, S-9, PCB, Method: PREINCUBATION); “inactive; negative” (Test System: AMES SALMONELLA TYPHIMURIUM, Strain/Indicator: YG1029, Metabolic Activation: NONE, Method: PREINCUBATION); “inactive; negative” (Test System: AMES SALMONELLA TYPHIMURIUM, Strain/Indicator: YG1029, Metabolic Activation: RAT, LIVER, S-9, PCB, Method: PREINCUBATION).

For `O=C1CCCc2c1ccc1c([N+](=O)[O-])c3ccccc3cc21`, the mutagenic call by setting is: (Test System: AMES SALMONELLA TYPHIMURIUM, Strain/Indicator: TA98, Metabolic Activation: NONE) “inactive; negative”; (Test System: AMES SALMONELLA TYPHIMURIUM, Strain/Indicator: TA98, Metabolic Activation: S-9) “inactive; negative”; (Test System: AMES SALMONELLA TYPHIMURIUM, Strain/Indicator: TA100, Metabolic Activation: NONE) “inactive; negative”; (Test System: AMES SALMONELLA TYPHIMURIUM, Strain/Indicator: TA100, Metabolic Activation: S-9) “inactive; negative”.

Regarding `CC1CCC(C(C)C)C(O)C1` (configuration not stated), the mutagenic call is “active; positive” (End Point: IN VITRO CHROMOSOMAL ABERRATIONS, Test System: CHO CELLS, Metabolic Activation: NONE) and “active; positive” (End Point: IN VITRO CHROMOSOMAL ABERRATIONS, Test System: TK6 HUMAN LYMPHOBLASTS, Metabolic Activation: NONE).

In the case of `O=Nc1ccc2c(c1)Cc1ccccc1-2`, the mutagenic call is “active; positive” under setting [5]; “active; positive” under setting [6]; “active; positive” (Test System: AMES SALMONELLA TYPHIMURIUM, Strain/Indicator: TA98, Metabolic Activation: S-9, Method: STANDARD PLATE); “active; positive” under setting [7]; “active; positive” (Test System: AMES SALMONELLA TYPHIMURIUM, Strain/Indicator: TA100, Metabolic Activation: S-9, Method: STANDARD PLATE); “active; positive” under setting [8].

For the molecule `CCCCCCCCCCCCCCCC(=O)OC/C=C(C)/C=C/C=C(C)/C=C/C1=C(C)CCCC1(C)C`, the mutagenic call (End Point: IN VIVO CHROMOSOMAL ABERRATIONS, Test System: BONE MARROW CELLS, Species: RAT, Strain/Sex: WISTAR/MALE, FEMALE, Route: ORAL (GAVAGE)) is “active; positive (structural changes; abnormal metaphase)”; the mutagenic call (End Point: IN VIVO CHROMOSOMAL ABERRATIONS, Test System: BONE MARROW, Species: RAT, Strain/Sex: WISTAR/MALE, FEMALE, Route: GAVAGE) is “active; positive (structural changes)”; the mutagenic call (End Point: IN VIVO MICRONUCLEUS, Test System: BONE MARROW POLYCHROMATIC ERYTHROCYTES, Species: MOUSE, Strain/Sex: DDY/MALE, Route: IP) is “inactive; negative”; the mutagenic call under setting [5] was “inactive; negative”; the mutagenic call under setting [6] was “inactive; negative”; the mutagenic call under setting [7] is “inactive; negative”. For the same molecule, the mutagenic call was “inactive; negative” (Test System: AMES SALMONELLA TYPHIMURIUM, Strain/Indicator: TA100, Metabolic Activation: RAT, LIVER, S-9, AROCLOR 1254, Method: STANDARD PLATE); “inactive; negative” (Test System: AMES SALMONELLA TYPHIMURIUM, Strain/Indicator: TA1535, Metabolic Activation: NONE, Method: STANDARD PLATE); “inactive; negative” (Test System: AMES SALMONELLA TYPHIMURIUM, Strain/Indicator: TA1535, Metabolic Activation: RAT, LIVER, S-9, AROCLOR 1254, Method: STANDARD PLATE); “inactive; negative” (Test System: AMES SALMONELLA TYPHIMURIUM, Strain/Indicator: TA1537, Metabolic Activation: NONE, Method: STANDARD PLATE); “inactive; negative” (Test System: AMES SALMONELLA TYPHIMURIUM, Strain/Indicator: TA1537, Metabolic Activation: RAT, LIVER, S-9, AROCLOR 1254, Method: STANDARD PLATE); “inactive; negative” under setting [8]. For the same molecule, the mutagenic call was “inactive; negative” (Test System: AMES SALMONELLA TYPHIMURIUM, Strain/Indicator: TA1538, Metabolic Activation: RAT, LIVER, S-9, AROCLOR 1254, Method: STANDARD PLATE); “inactive; negative” (Test System: E. COLI, Strain/Indicator: WP2, Metabolic Activation: NONE, Method: STANDARD PLATE); “inactive; negative” (Test System: E. COLI, Strain/Indicator: WP2, Metabolic Activation: RAT, LIVER, S-9, AROCLOR 1254, Method: STANDARD PLATE).

(Values after PubChem BioAssay AID1259407 (Chemical Carcinogenesis Research Information System (CCRIS), 2018).)
